Our source for the AC50 values is ChEMBL document CHEMBL5291721, “A preclinical secondary pharmacology resource illuminates target-adverse drug reaction associations of marketed drugs” (Nat Commun, 2023).

The target in assay [1] is T1, Alpha-2B adrenergic receptor (Homo sapiens, UniProt P18089).
T1 sequence (P18089 whole entry): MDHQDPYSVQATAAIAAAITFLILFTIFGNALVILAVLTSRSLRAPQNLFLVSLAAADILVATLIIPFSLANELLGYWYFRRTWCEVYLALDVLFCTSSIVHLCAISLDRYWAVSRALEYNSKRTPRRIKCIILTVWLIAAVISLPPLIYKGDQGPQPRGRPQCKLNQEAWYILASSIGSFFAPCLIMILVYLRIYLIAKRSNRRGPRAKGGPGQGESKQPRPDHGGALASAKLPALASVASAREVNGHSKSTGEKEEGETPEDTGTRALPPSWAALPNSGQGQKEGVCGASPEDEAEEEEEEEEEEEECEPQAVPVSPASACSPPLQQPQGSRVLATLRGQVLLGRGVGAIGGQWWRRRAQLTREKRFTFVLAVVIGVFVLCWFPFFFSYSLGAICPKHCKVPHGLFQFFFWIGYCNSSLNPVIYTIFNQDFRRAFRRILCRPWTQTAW

Assay [2] has as its target T2, Muscarinic acetylcholine receptor M1 (Homo sapiens, UniProt P11229).
T2 sequence (P11229 whole entry): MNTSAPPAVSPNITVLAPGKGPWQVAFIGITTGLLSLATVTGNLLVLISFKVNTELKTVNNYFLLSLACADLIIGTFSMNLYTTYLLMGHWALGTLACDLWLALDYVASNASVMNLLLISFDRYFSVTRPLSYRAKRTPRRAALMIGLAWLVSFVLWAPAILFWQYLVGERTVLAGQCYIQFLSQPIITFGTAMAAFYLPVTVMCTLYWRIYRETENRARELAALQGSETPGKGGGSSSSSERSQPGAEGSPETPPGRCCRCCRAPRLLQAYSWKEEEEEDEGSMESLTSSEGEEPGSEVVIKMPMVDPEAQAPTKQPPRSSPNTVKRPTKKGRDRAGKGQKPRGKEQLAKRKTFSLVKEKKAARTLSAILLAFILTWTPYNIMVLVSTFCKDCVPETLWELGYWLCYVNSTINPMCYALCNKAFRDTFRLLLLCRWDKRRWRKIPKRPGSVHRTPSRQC
The class given is functional.

Assay [3] has as its target Muscarinic acetylcholine receptor M3 (Homo sapiens, UniProt P20309).
The target of assay [4] is Gamma-aminobutyric acid receptor subunit alpha-1 (Rattus norvegicus, UniProt P62813). The class given is functional.
Sequence of Gamma-aminobutyric acid receptor subunit alpha-1 (P62813 whole entry): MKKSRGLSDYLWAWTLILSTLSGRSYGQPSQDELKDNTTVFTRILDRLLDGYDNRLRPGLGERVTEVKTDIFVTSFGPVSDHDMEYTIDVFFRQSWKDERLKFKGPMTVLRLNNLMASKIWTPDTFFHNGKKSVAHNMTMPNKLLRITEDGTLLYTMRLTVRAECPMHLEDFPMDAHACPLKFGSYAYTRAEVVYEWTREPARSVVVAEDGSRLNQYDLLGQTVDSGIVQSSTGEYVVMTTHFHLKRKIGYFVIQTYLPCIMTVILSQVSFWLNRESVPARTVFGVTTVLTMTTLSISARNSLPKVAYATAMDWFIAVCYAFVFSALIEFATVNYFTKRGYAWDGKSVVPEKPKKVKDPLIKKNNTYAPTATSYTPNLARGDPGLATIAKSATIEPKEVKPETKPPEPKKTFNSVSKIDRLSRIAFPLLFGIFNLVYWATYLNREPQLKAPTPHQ
The target in the next assay is Cannabinoid receptor 1 (Homo sapiens, UniProt P21554). The class given is functional, cell-based.
Sequence of Cannabinoid receptor 1 (P21554 whole entry): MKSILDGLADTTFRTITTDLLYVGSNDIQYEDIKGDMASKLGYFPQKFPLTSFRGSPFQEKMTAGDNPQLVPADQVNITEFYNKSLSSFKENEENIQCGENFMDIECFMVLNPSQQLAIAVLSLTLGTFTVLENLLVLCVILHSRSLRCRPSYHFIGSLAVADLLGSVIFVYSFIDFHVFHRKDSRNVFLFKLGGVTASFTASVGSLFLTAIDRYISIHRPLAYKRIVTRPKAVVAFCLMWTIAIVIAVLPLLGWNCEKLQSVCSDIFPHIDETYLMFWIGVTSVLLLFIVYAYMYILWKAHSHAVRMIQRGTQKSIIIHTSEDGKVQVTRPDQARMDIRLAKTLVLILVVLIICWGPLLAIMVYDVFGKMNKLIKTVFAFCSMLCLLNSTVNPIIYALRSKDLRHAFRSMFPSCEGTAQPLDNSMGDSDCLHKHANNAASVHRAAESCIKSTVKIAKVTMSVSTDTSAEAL
Assay [5] has as its target T3, Alpha-1A adrenergic receptor (Homo sapiens, UniProt P35348).
T3 sequence (P35348 whole entry): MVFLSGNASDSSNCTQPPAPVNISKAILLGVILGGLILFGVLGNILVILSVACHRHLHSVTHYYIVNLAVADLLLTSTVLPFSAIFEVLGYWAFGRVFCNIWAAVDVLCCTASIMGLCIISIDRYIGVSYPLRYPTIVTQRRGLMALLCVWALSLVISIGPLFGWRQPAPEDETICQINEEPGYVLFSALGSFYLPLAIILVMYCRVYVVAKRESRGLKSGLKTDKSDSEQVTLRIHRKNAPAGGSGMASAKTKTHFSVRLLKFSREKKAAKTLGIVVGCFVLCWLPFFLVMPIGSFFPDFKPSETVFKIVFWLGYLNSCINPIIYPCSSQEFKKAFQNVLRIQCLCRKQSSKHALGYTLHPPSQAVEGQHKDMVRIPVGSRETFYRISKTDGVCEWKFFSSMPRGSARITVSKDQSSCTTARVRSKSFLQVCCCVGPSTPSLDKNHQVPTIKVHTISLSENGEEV
Type of assay: functional, cell-based.

For assay [6], the target named is Prostaglandin G/H synthase 1 (Homo sapiens, UniProt P23219). Type of assay: functional.
Sequence of Prostaglandin G/H synthase 1 (P23219 whole entry): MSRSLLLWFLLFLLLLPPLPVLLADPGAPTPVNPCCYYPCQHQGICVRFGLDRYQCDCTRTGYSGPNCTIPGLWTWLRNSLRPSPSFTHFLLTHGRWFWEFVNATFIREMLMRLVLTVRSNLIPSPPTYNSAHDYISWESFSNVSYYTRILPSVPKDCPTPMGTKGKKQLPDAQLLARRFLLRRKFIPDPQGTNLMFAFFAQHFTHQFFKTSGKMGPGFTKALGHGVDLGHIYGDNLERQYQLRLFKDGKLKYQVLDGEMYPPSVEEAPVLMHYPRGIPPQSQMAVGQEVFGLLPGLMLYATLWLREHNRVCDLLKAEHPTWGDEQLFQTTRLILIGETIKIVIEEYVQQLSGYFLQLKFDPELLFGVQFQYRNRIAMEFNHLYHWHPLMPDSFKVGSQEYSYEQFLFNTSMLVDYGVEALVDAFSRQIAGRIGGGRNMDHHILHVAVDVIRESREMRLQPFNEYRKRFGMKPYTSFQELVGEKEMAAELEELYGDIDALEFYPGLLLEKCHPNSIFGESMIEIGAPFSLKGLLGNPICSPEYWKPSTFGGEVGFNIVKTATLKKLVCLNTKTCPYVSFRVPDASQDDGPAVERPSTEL
Assay [7] has as its target Sodium-dependent noradrenaline transporter (Homo sapiens, UniProt P23975).
The target of another assay is T4, Endothelin-1 receptor (Homo sapiens, UniProt P25101).
T4 sequence (P25101 whole entry): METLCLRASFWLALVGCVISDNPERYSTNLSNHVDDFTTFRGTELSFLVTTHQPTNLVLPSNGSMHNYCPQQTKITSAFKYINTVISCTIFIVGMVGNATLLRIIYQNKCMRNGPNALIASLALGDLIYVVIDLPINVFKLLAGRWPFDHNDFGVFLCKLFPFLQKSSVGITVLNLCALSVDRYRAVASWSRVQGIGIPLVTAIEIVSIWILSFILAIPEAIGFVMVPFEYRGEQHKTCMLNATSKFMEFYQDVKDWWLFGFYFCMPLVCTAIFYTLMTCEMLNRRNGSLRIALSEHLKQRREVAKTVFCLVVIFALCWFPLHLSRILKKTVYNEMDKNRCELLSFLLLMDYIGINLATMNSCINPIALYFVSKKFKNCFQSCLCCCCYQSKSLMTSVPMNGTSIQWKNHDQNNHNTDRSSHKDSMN

Assay [8] concerns the target T5, 5-hydroxytryptamine receptor 1A (Homo sapiens, UniProt P08908).
T5 sequence (P08908 whole entry): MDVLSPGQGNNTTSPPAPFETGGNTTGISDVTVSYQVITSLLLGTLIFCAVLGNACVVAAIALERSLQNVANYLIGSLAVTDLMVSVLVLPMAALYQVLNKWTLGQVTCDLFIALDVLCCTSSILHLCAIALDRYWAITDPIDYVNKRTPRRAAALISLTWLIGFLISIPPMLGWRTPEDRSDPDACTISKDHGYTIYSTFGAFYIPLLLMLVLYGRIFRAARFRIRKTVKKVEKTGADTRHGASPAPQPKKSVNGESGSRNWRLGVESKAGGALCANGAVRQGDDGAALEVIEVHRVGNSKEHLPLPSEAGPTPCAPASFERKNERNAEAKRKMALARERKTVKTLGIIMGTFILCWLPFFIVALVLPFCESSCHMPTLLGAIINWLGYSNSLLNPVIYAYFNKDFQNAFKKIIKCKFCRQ
The class given is functional, cell-based.

In a further assay the target is Mu-type opioid receptor (Homo sapiens, UniProt P35372). Description: biochemical. Type of assay: functional.
Sequence of Mu-type opioid receptor (P35372 whole entry): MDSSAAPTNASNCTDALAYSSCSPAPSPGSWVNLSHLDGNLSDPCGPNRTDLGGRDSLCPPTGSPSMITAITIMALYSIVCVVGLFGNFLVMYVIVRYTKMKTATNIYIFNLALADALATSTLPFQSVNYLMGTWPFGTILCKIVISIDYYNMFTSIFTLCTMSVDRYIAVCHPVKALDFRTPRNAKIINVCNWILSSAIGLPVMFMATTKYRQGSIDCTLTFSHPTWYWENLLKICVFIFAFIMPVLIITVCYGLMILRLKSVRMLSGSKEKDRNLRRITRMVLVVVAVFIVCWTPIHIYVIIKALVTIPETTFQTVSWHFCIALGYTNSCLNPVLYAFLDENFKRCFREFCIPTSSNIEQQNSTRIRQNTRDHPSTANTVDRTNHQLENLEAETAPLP

Sequence of Sodium-dependent noradrenaline transporter (P23975 whole entry): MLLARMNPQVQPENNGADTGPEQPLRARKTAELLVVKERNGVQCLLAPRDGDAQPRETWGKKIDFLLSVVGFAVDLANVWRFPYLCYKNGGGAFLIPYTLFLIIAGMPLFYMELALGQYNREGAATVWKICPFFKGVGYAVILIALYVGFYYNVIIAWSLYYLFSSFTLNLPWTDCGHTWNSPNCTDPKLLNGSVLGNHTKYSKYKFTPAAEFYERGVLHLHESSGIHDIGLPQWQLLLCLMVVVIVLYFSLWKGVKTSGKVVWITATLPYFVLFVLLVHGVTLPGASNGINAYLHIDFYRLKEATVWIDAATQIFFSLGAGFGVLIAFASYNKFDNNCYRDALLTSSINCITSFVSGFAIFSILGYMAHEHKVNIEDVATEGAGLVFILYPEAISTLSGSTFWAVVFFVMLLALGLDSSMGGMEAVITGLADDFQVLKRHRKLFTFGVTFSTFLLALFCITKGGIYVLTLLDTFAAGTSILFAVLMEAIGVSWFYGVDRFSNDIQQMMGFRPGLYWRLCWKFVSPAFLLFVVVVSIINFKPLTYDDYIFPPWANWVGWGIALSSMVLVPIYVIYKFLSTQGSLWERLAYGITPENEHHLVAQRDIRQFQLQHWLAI
Sequence of Muscarinic acetylcholine receptor M3 (P20309 whole entry): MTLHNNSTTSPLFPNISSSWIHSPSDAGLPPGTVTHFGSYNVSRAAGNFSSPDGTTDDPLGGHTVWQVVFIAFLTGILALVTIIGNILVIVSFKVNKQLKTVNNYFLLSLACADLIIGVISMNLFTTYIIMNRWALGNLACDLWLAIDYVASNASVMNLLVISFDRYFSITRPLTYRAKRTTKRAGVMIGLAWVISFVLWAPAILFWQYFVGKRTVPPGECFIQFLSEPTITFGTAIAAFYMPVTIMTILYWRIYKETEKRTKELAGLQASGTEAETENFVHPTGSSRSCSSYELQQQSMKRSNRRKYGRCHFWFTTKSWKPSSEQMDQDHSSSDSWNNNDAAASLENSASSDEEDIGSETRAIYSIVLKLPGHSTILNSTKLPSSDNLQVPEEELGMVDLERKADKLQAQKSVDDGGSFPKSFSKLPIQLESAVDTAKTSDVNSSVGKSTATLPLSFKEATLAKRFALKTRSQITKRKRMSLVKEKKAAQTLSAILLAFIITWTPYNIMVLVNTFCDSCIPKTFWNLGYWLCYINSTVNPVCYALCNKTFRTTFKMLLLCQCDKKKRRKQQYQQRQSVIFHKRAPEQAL

In the case of `CCC[C@H](NC(=O)[C@@H]1[C@H]2CCC[C@H]2CN1C(=O)[C@@H](NC(=O)[C@@H](NC(=O)c1cnccn1)C1CCCCC1)C(C)(C)C)C(=O)C(=O)NC1CC1`, the half-maximal activity concentration (AC50) in assay [1] is greater than 10 µM; in assay [2] it was greater than 10 µM; in assay [3], greater than 30 µM; in [4] it was greater than 10 µM.
With `CN1CCC(=C2c3ccccc3CCc3cccnc32)CC1` [AZATADINE], the AC50 in [1] is greater than 10 µM; in [2], 0.11 µM; in assay [3] it was greater than 30 µM; on Cannabinoid receptor 1, greater than 30 µM; in [4], greater than 10 µM.
With `CCCCC(=O)O[C@]1(C(=O)CO)[C@@H](C)C[C@H]2[C@@H]3CCC4=CC(=O)C=C[C@]4(C)[C@@]3(F)[C@@H](O)C[C@@]21C` [BETAMETHASONE VALERATE], the concentration at half-maximal activity (AC50) in assay [1] was greater than 10 µM; in assay [2], greater than 10 µM; in assay [3], greater than 30 µM; at Cannabinoid receptor 1, greater than 30 µM; in assay [4] it was greater than 10 µM.
In turn, `CNC1=Nc2ccc(Cl)cc2C(c2ccccc2)=[N+]([O-])C1` [CHLORDIAZEPOXIDE] showed a concentration at half-maximal activity (AC50) in assay [4] of 0.79 µM.
Regarding `CC(=O)O[C@]1(C(C)=O)CC[C@H]2[C@@H]3C=C(Cl)C4=CC(=O)CC[C@]4(C)[C@H]3CC[C@@]21C` [CHLORMADINONE ACETATE], the AC50 in assay [5] is 18 µM; in assay [6], greater than 30 µM; in assay [7], greater than 30 µM.
As for `O=C(O)c1cn(C2CC2)c2cc(N3CCNCC3)c(F)cc2c1=O` [CIPROFLOXACIN], the concentration at half-maximal activity (AC50) at Endothelin-1 receptor is greater than 30 µM.
For `Cc1ccccc1N1CCN(CCc2nnc3n2CCCC3)CC1` [DAPIPRAZOLE], the AC50 in [6] and in assay [7] was greater than 30 µM each time.
As to `CC(CCc1ccc(O)cc1)NCCc1ccc(O)c(O)c1` (stereo unspecified) [DOBUTAMINE], the concentration at half-maximal activity (AC50) at Cannabinoid receptor 1 was greater than 30 µM; at Endothelin-1 receptor it was greater than 30 µM; in assay [4], greater than 30 µM; in [8], greater than 10 µM; at Mu-type opioid receptor, greater than 30 µM.
`C=C1CC[C@H](O)C/C1=C/C=C1\CCC[C@]2(C)[C@@H]([C@H](C)/C=C/[C@H](C)C(C)C)CC[C@@H]12` [ERGOCALCIFEROL]: the AC50 in [6] and in assay [7] was greater than 30 µM throughout.
As to `CC(C)NCC(O)c1ccc(O)c(O)c1` (stereo unspecified) [ISOPROTERENOL], the concentration at half-maximal activity (AC50) at Cannabinoid receptor 1 is greater than 30 µM; on Endothelin-1 receptor, greater than 30 µM; in assay [4] it was greater than 10 µM; in [8], greater than 10 µM.
Turning to `CC(C)(C)NC[C@H](O)COc1cccc2c1CCCC2=O` [LEVOBUNOLOL], the AC50 in [5], in assay [6] and in assay [7] was greater than 30 µM in each case.
As for `CC(C(=O)O)c1ccc(CC2CCCC2=O)cc1` (stereo unspecified) [LOXOPROFEN], the AC50 (at Cannabinoid receptor 1; on Endothelin-1 receptor; in assay [4]; in assay [8]; at Mu-type opioid receptor) was greater than 30 µM each time.
With `OC1(c2ccc(Cl)cc2)c2ccccc2C2=NCCN21` (stereo unspecified) [MAZINDOL], the AC50 (in assay [1]; in assay [2]; in assay [3]; at Cannabinoid receptor 1; at Endothelin-1 receptor; in [4]) was greater than 30 µM in each case. In addition, the figures for the AC50 (in assay [8]; at Mu-type opioid receptor) were greater than 30 µM and 16 µM, respectively.
Consider `CC12CC3CC(C)(C1)CC(N)(C3)C2` [MEMANTINE], for which the AC50 in assay [1] was greater than 10 µM; in [2] it was greater than 10 µM; in [3] it was greater than 30 µM; at Cannabinoid receptor 1 it was greater than 30 µM; at Endothelin-1 receptor, greater than 30 µM; in [4], greater than 10 µM. Also, the half-maximal activity concentration (AC50) in assay [8] was greater than 10 µM.
Turning to `Cc1c(N(C)CS(=O)(=O)O)c(=O)n(-c2ccccc2)n1C` [METAMIZOLE], the AC50 was greater than 30 µM in assay [5], 3.66 µM in assay [6] and greater than 30 µM in [7].
Consider `CN(C)CCCNc1c2ccccc2nc2cccc([N+](=O)[O-])c12` [NITRACRINE], for which the AC50 was 22 µM in [1]; 11 µM in assay [2]; 19 µM in [3]; greater than 30 µM on Cannabinoid receptor 1; greater than 30 µM at Endothelin-1 receptor; 18 µM in assay [4]. Moreover, on Mu-type opioid receptor, the half-maximal activity concentration (AC50) was greater than 30 µM.
As for `CCOC(=O)C1=C(C)NC(C)=C(C(=O)OC)C1c1cccc([N+](=O)[O-])c1` (stereo unspecified) [NITRENDIPINE], the concentration at half-maximal activity (AC50) was greater than 30 µM at Cannabinoid receptor 1, greater than 30 µM at Endothelin-1 receptor, greater than 10 µM in assay [4] and greater than 10 µM in [8].
With `[H]/N=C(/N)N/C(=N/[H])NCCc1ccccc1` [PHENFORMIN], the AC50 in [1] is 15 µM; in [2] it was greater than 30 µM; in assay [3] it was greater than 30 µM; at Endothelin-1 receptor, greater than 30 µM; in assay [4], greater than 10 µM; in assay [8] it was greater than 30 µM. Besides, on Mu-type opioid receptor, the AC50 is greater than 30 µM.
In the case of `CCCCC1C(=O)N(c2ccccc2)N(c2ccccc2)C1=O` [PHENYLBUTAZONE], the AC50 in [4] and in [8] was greater than 10 µM each time.
Regarding `CC(N)C(O)c1ccccc1` (stereo unspecified) [PHENYLPROPANOLAMINE], the AC50 in [1] is greater than 10 µM; in assay [2], greater than 10 µM; at Cannabinoid receptor 1 it was greater than 30 µM; at Endothelin-1 receptor, greater than 30 µM; in assay [4], greater than 10 µM; in assay [8], greater than 10 µM.
Regarding `CCCN[C@H]1CCc2nc(N)sc2C1` [PRAMIPEXOLE], the AC50 was greater than 10 µM in assay [2]; greater than 30 µM in assay [3]; greater than 30 µM on Cannabinoid receptor 1; greater than 10 µM in assay [4]; greater than 10 µM in [8].
As for `Cc1noc(NS(=O)(=O)c2ccc(N)cc2)c1C` [SULFISOXAZOLE], the AC50 on Cannabinoid receptor 1 is greater than 30 µM; in assay [4] it was greater than 10 µM.
Take `Cc1cc2cc3c(C)cc(=O)oc3c(C)c2o1` [TRIOXSALEN]: the half-maximal activity concentration (AC50) is greater than 10 µM in assay [4], greater than 10 µM in assay [8] and greater than 30 µM on Mu-type opioid receptor.
With `CCCC(CCC)C(N)=O` [VALPROMIDE], the AC50 was greater than 10 µM in assay [1]; greater than 10 µM in [2]; greater than 30 µM in [3]; greater than 30 µM at Cannabinoid receptor 1; greater than 10 µM in [4].
With `Cc1cc(C(C)(C)C)cc(C)c1CC1=NCCN1` [XYLOMETAZOLINE], the half-maximal activity concentration (AC50) was 0.208 µM in assay [1]; 14.4 µM in [2]; 10 µM in assay [3]; greater than 30 µM on Cannabinoid receptor 1; greater than 30 µM on Endothelin-1 receptor; greater than 30 µM in assay [4]. Further, at Mu-type opioid receptor, the concentration at half-maximal activity (AC50) was greater than 30 µM.

A word on the AC50: it is the concentration giving half of the maximal activity seen. A high value points to weaker potency.
